Data as given in US7326679B2, “Anticancer peptide compositions” (TranXenoGen, Inc., priority 2003, dated 2008).
“Also recorded” adds a separate entry of the source. Square brackets hold non-standard residues; d marks the D form. Ends that are not written are not given here. pGlu = O=C1CC[C@@H](C(=O)O)N1

Columns and labels:
[1] = tested on: OSRC human osteogenic sarcoma tumor; assay: Osteosarcoma (OSRC) tumor model in nude mice; type: in vivo, Nude nu/nu mice; conditions: SQ treatments on days 8, 11, 14 and 17; n=4
Procedure: Tumor cell culture and harvesting was carried out as follows. Human osteogenic sarcoma cancer cells (OSRC cell line) was grown in DMEM containing additional non-essential amino acids and vitamins and 10% heat inactivated fetal bovine serum (Invitrogen™, Carlsbad, Calif.). Cells in log phase were harvested from flasks using trypsin-EDTA (0.05% trypsin/0.53 mM Na-EDTA; Invitrogen™), washed in PBS and resuspended in DMEM for counting and viability assessment using trypan blue exclusion. Cells were resuspended at 2.5×10^7 cells per ml in PBS for injection into the mice.
Nude nu/nu mice (4 to 5 week-old females, Charles River Labs, Wilmington, Mass.) were acclimated for 1 week before injection with 2.5 million OSRC cells subcutaneously (SQ) in a total volume of 100 μl. After 8 days of tumor development, the mice were injected SQ with each peptide or the protein pool prepared in phosphate buffered saline (PBS) containing 0.05% sodium dodecyl sulfate (SDS) or PBS+0.05% SDS alone (Control). All doses were 200 μl in volume, with additional treatments on days 11, 14 and 17 post-transplantation. Treatments were alternated between flanks of the mice. Tumor size (length, width and height) and mouse weights were measured three times per week. The results (FIGS. 6A-B) represent the average of the 4 mice in each group. […]

[2] = tested on: HeLa tumor; assay: In vivo nude mice experiment, HeLa tumor growth; set-up: species or system Nude nu/nu mice; conditions: for inhibition of HeLa tumor growth during treatment phase (average tumor volume): n=3; for tumor growth profile post treatment: after fourth treatment until day 24, Pep A 500 and 750 μg, Pep B 500 μg; for response of individual tumors to treatment: tumor volumes on day 14, one day post last treatment; for vascularization and infiltration of isolated tumors (histopathology): compared to control mice
Procedure: The HeLa human cervical cancer cell line (ATCC, Manassas Va.; CCL-2) was grown according to direction in DMEM containing 10% fetal bovine serum. Cells in log phase were harvested from flasks using trypsin-EDTA (0.25% trypsin/1 mM Na-EDTA; Invitrogen), washed in PBS and resuspended in DMEM for counting and viability assessment using trypan blue exclusion. […] Cells were resuspended at 5×10^7 cells/mL in PBS for injection into the mice.
Nude nu/nu mice (4 to 5 week-old females) were acclimated for 1 week and injected with 5 million HeLa cells subcutaneously (SQ) in a total volume of 100 μL. After 3 days of tumor development, the mice were injected SQ with each peptide prepared in phosphate buffered saline (PBS) containing 0.05% sodium dodecyl sulfate (SDS) or PBS+0.05% SDS alone. All doses were 200 μL in volume, with additional treatments on days 6, 10 and 13 post-transplantation. Treatments were alternated between flanks of the mice. Tumor size and mouse weights were measured three times per week. The results represent the average of the 3 mice in each group. The experiment was terminated on day 24 and the tumors were excised for weight and histopathology.
HeLa cells (5×10^6 cells in 100 μL were administered subcutaneously (SQ). The cells were implanted in the left mid-flank region of 5 week old immunodeficient Nude nu/nu female mice (Charles River Labs, Wilmington, Mass.) and allowed to develop to palpable size (average diameter=[…]; average volume=24 mm^3). Mice were randomized and divided into experimental groups, with 3 mice per group. The mice were treated with SQ injections (200 μL) of various doses of peptide in phosphate buffered saline (PBS) containing a detergent, e.g., 0.05% sodium dodecyl sulphate (SDS). Control mice were injected with PBS containing 0.05% SDS alone. […] The treatments were administered on days 3, 6, 10 and 13 post-transplantation. Tumors were measured three times per week until the experiment was terminated on day 24 post-transplantation.

[3] = tested on: bFGF induced angiogenesis; assay: Chicken chorioallantoic membrane (CAM) assay; type: in vivo, White Leghorn chick embryos; conditions: for inhibition of bFGF-induced angiogenesis: day-10 chick embryos; for anti-angiogenic activity in CAM assay (overall): increasing doses, 100 ng or 200 ng bFGF, 48 hours at 37° C.
Text: The chicken chorioallantoic membrane (CAM) assay was completed to assess the effect of the peptides on basic fibroblast growth factor (bFGF) induced angiogenesis. Small windows were created through the blunt end of the shell directly over the air sac of 9-10 day old White Leghorn chick embryos with the use of a small crafts Dremel drill. The air sac was peeled-off, and filter disks saturated with basic fibroblast growth factor (bFGF) and the test peptide (or buffer control) were placed adjacent to each other on the CAM of the chick embryo. The shell windows were sealed with parafilm and eggs were incubated at 37° C. in a humidified egg incubator. After 48-72 hours, the CAM tissue directly below the filter disks was resected. Tissues were washed three times with PBS and analyzed using a stereomicroscope. The number of branching blood vessels infiltrating under the filter disks were determined and documented.

[4] = tested on: neo-vascularization of early chick embryo; assay: Chick embryo neo-vascularization inhibition assay; type: in vivo, White Leghorn chick embryos; conditions: day-3.5 chick embryo, filter disks
Text: This assay was completed to determine the impact of Pep A and Pep B on neo-vascularization of early chick embryo. Small windows were created through the blunt end of the shell directly over the air sac of 3.5-day old White Leghorn chick embryos with the use of a small crafts Dremel drill. The air sac was peeled-off and filter disks with different concentrations of the test peptide or buffer control were placed over a section of the developing blood ring and overlapping connecting vessels of the chick embryo. The shell windows were sealed with parafilm and eggs were incubated at 37° C. in a humidified egg incubator. After 48-72 hours, the yolk membrane tissue directly below the filter disks was resected. Tissues were washed three times with PBS and analyzed for inhibition of neo-vascularization using a stereomicroscope with photo-digital attachment.

[5] = tested on: CAM tissue cells; assay: Detection of cell death in resected CAM tissues (H-33342 and propidium iodide staining); type: in vivo, chick embryos; conditions: for apoptosis / DNA fragmentation (H-33342 staining): 100 ng bFGF plus 200 ng peptide
Procedure: Following staining, the tissues were washed three times in PBS and fixed in 4% formalin. The tissues were visualized under epifluorescence using a photo-digital imaging system. The number of live, apoptotic and necrotic cells were determined.

[6] = 500 μg per dose SQ on days 3, 6, 10 and 13
[7] = 200 ng peptide with 100 ng bFGF

Row | Substance | osteosarcoma tumor volume (tumor burden) [1] | inhibition of HeLa tumor growth during treatment phase (average tumor volume) [2, 6] | inhibition of HeLa tumor growth during treatment phase (average tumor volume) ([2]; 750 μg per dose SQ on days 3, 6, 10 and 13) | tumor growth profile post treatment [2] | response of individual tumors to treatment [2] | areas of cell death in isolated tumors (histopathology) ([2]; tumors isolated upon sacrifice) | vascularization and infiltration of isolated tumors (histopathology) ([2]; tumors isolated upon sacrifice) | suppression of bFGF-induced angiogenesis ([3]; 200 ng of bFGF) | inhibition of bFGF-induced angiogenesis [3, 7] | inhibition of bFGF-induced angiogenesis ([3]; Pep A with 100 ng bFGF) | anti-angiogenic activity in CAM assay (overall) [3] | suppression of neo-vascularization / branching vessel formation [4] | apoptosis / DNA fragmentation (H-33342 staining) [5] | apoptosis / DNA fragmentation (H-33342 staining) ([5]; listed as PepA) | condensation of the cell nuclei ([5]; compared to controls)
1 | 6 mer: residues 5-10 of SEQ ID NO:1 (YTCKEP) | reduction of osteosarcoma tumor volume |  |  |  |  |  |  |  |  |  |  |  |  |  | 
2 | ELKCYTCKEPMTSASCRTIT [Pep A] | reduction of osteosarcoma tumor volume | tumor inhibition during the treatment phase | tumor inhibition during the treatment phase | slight increase in tumor burden; also recorded: only limited tumor growth for the duration of the experiment | response of all animals | larger areas of cell death; also recorded: noticeably larger | significantly less vascularization and infiltration | showed suppression | comparatively better inhibition of blood vessel infiltration | inhibition of neo-vascularization and infiltration as well as degradation of pre-existing vessels | inhibited angiogenesis; also recorded: more potent anti-angiogenic agent | dose dependent suppression of branching vessel formation | Intensely staining apoptotic nuclei (white) of vascular cells; also recorded: significant increase in DNA fragmentation | induces cell death by apoptosis | 
3 | pyroELKCYTCKEPMTSASCRTIT ([pGlu]LKCYTCKEPMTSASCRTIT; cysteine pairing not given here) [Pep B] |  | tumor inhibition during the treatment phase |  | escalation of tumor burden; also recorded: lost shortly after treatment stopped | response of all animals |  | significantly less vascularization and infiltration |  | inhibition of bFGF-induced angiogenesis |  | inhibited angiogenesis | dose dependent suppression of branching vessel formation | did not demonstrate the peri-vascular apoptosis; also recorded: minimal increase in apoptosis over the control |  | observable condensation of the cell nuclei
